Test results: patent publication US11779620B2 (priority 2020, dated 2023)

How the values were obtained:
human PBMC cultures [1] = experiment: Cytokine, chemokine and growth factor levels in PBMC culture supernatants (medicinal mushroom blend study); type: cell-based; details: LPS-treated control cultures (10 ng/mL), 24 h, mean±SD
Procedure: The powder was handled in the following manner, using pyrogen-free disposables: A 100 mg/mL suspension was prepared in phosphate-buffered saline (PBS) and allowed to rehydrate and extract aqueous compounds for 1 hour at 20° C. under gentle agitation. The suspension was centrifuged at 400 g for 10 minutes, and the aqueous fraction harvested. Ethanol (95%) was added to the pellet and vortexed, and extraction of non-aqueous, ethanol-soluble compounds allowed for 1 hour at 20° C. under gentle agitation. The suspension was centrifuged at 400 g for 10 minutes, and the ethanol fraction harvested. The remaining solid pellet was resuspended in PBS. The aqueous and ethanol fractions were filtered through a 0.22-micron syringe filter before adding to cell cultures. The solid fraction was passed through homogenization spin columns (QIAshredder, Qiagen, […].), but were not filtered through a 0.22-micron filter. From each fraction, serial dilutions were made in pyrogen-free physiological saline. See also FIG. 9.
Peripheral venous blood was drawn from three healthy human donors upon written informed consent, as approval by the Sky Lakes Medical Center Institutional Review Board, Federalwide Assurance 2603. The blood was drawn into heparin vacutainer vials, and the peripheral blood mononuclear cells (PBMC) isolated using Lympholyte Poly by centrifugation for 35 minutes at 400×g. The PBMC were washed twice in PBS, counted, and the density adjusted to establish cultures with a cell density of 10^6/mL, using Roswell Park Memorial Institute (RPMI) 1640 medium containing penicillin, streptomycin, and fetal bovine serum.
The highly inflammatory lipopolysaccharide (LPS) from Salmonella enterica was used as a positive control for immune-cell activation. Serial dilutions of products or LPS (10 ng/mL) were added to cultures at a volume of 20 μL, and cultures were then incubated at 37° C., 5% CO2 for 24 hours. […] Untreated negative control cultures consisted of PBMC exposed to phosphate-buffered saline in the absence of test products. All treatments, including each dose of test product and each positive and negative control, were tested in triplicate. After 24 hours, cells were transferred to V-bottom microtiter plates, washed in PBS containing bovine serum albumin and sodium azide, and stained for 10 minutes with fluorochrome-labeled anti-CD3, anti-CD56, and anti-CD69 monoclonal antibodies at the recommended concentration. PBMC were then fixed in formalin. The fluorescence intensities for CD3, CD56, and CD69 were measured by flow cytometry, using an Attune acoustic-focusing flow cytometer (Thermo Fisher Scientific, Waltham, Mass., USA). Data analysis utilized gating on forward and side scatter to evaluate CD69 expression on lymphocyte versus monocyte/macrophage subsets. The lymphocyte subpopulation was further analyzed for CD69 expression on CD3−CD56+ NK cells, CD3+CD56+ NKT cells, CD3+CD56− T cells, and non-NK non-T lymphocytes.
After 24 hours of incubation, after transfer to V-bottom microtiter plates and before cells were stained for flow cytometry analysis, the culture supernatants were harvested from the PBMC cultures described above. Levels of cytokines, chemokines, and growth factors were quantified using Bio-Plex protein arrays (Bio-Rad Laboratories Inc., Hercules Calif., USA) and utilizing xMAP technology (Luminex, Austin, Tex., USA).

human PBMC cultures [2] = experiment: Induction of CD69 activation marker on immune cell subsets in PBMC cultures (Trametes versicolor study); type: cell-based; details: 24 h, positive controls LPS 10 ng/mL, IL-2 100 IU/mL, mean±SD

## lipopolysaccharide [LPS]
Human PBMC cultures [1]
  G-CSF level: 1,458±58 pg/mL
  IFN-γ level: 71 ± 2 pg/mL
  IL-1ra level: 8,134±473 pg/mL
  IL-1β level: 772 ± 28 pg/mL
  IL-10 level: 301 ± 15 pg/mL
  MCP-1 level: 2,052±35 pg/mL
  MIP-1α level: 2,116±0 pg/mL
  MIP-1β level: 6,497±814 pg/mL
  TNF-α level: 7,073±185 pg/mL
  VEGF level: 421 ± 17 pg/mL
  bFGF level: 221 ± 8 pg/mL
Human PBMC cultures [2]
  CD69 percent change compared to untreated control cultures, NK cells: 114±10%
  CD69 percent change compared to untreated control cultures, NKT cells: 54±8.3%
  CD69 percent change compared to untreated control cultures, T lymphocytes: 19±2.1%
